Read-outs that look alike come from different tables or passages of the source.
Key:
[1] = tested on: Plasmodium falciparum (NF54) proliferative erythrocytic stages; experiment: In vitro activity against Plasmodium falciparum erythrocytic stages; assay type: cell-based; settings: for P. falciparum SI (selectivity index): IC50 in L6 cells divided by IC50 in P. falciparum; for IC50: Plasmodium falciparum
Description: In parallel, the cytotoxicity of these compounds in rat skeletal myoblasts (L-6 cells) was determined in order to obtain an initial assessment of their selectivity.
(§1) In vitro activity assays against a panel of protozoal parasites, namely Trypanosoma brucei rhodesiense (STIB 900), Trypanosoma cruzi (Tulahuen C4), Leishmania donovani (MHOM/ET/67/L82), and Plasmodium falciparum (NF54), and cytotoxicity tests against mammalian cells (L6-cell line from rat-skeletal myoblasts) were performed according to previously described methods ([2], [3]). All assays were performed in at least three independent replicates.

[2] = tested on: Trypanosoma brucei rhodesiense (STIB 900) bloodstream forms; experiment: In vitro activity against Trypanosoma brucei rhodesiense bloodstream forms; assay type: cell-based; settings: for T. b. rhodesiense SI (selectivity index): IC50 in L6 cells divided by IC50 in T. b. rhodesiense; for IC50: Trypanosoma brucei, read-out: T. b. rhodesiense IC50
Description: (§2) Based on the antiparasitic bioactivity of the crude extract of MCy12716, angiolams A (1), B (2), C (3), D (4), and F (5) were tested for their in vitro activities against the following protozoan parasites: Trypanosoma brucei rhodesiense (STIB 900) bloodstream forms, Trypanosoma cruzi (Tulahuen C4) amastigotes, Leishmania donovani (MHOM/ET/67/L82) axenic amastigotes, and Plasmodium falciparum (NF54) proliferative erythrocytic stages. In parallel, the cytotoxicity of these compounds in rat skeletal myoblasts (L-6 cells) was determined in order to obtain an initial assessment of their selectivity.
as §1

[3] = tested on: Trypanosoma cruzi (Tulahuen C4) amastigotes; experiment: In vitro activity against Trypanosoma cruzi amastigotes; assay type: cell-based; settings: for T. cruzi SI (selectivity index): IC50 in L6 cells divided by IC50 in T. cruzi; for IC50: Trypanosoma cruzi, Tulahuen C4, mean of at least three independent replicates ± SD, read-out: T. cruzi IC50
Description: as §2, §1

Cytotoxicity in L6 cells = assay type: cell-based, rat
Description: as §2, §1

[4] = tested on: Leishmania donovani (MHOM/ET/67/L82) axenic amastigotes; experiment: In vitro activity against Leishmania donovani axenic amastigotes; assay type: cell-based; settings: for L. donovani SI (selectivity index): IC50 in L6 cells divided by IC50 in L. donovani; for IC50: Leishmania donovani, MHOM-ET-67/L82 axenic amastigotes, mean of at least three independent replicates ± SD, read-out: L. donovani IC50
Description: as §2, §1

[5] = NF54, mean of at least three independent replicates ± SD, read-out: P. falciparum IC50
[6] = STIB 900, mean of at least three independent replicates ± SD
[7] = L6 rat skeletal myoblasts, mean of at least three independent replicates ± SD, read-out: Cytotoxicity in L6 cells IC50

CC/C=C(\C)[C@@H](O)CC[C@@H](C)/C=C/[C@@H]1CC[C@@H](C)C(=O)CC(=O)N[C@@H](C)CCC(=O)[C@@H](C)[C@H](O)[C@@H](C)/C=C(\C)C(=O)O1 [Angiolam C, angiolam C]
P. falciparum SI (selectivity index) [1]: ≥ 30
P. falciparum SI (selectivity index) ([1]; listed as Angiolam C (3)): 53.7
IC50 [1, 5]: 0.6 ± 0.4 µM
T. b. rhodesiense SI (selectivity index) [2]: 6.8
IC50 [2, 6]: 4.5 ± 0.4 µM
T. cruzi SI (selectivity index) [3]: ≤ 2.1
T. cruzi SI (selectivity index) ([3]; listed as Angiolam C (3)): 0.9
IC50 [3]: 34 ± 11.6 µM
IC50 (Cytotoxicity in L6 cells; rat): 30.6 ± 2.3 µM
L. donovani SI (selectivity index) [4]: 1.99
IC50 [4]: 15.4 ± 2.3 µM

CCCCCCCCCCCCCCCCOP(=O)([O-])OCC[N+](C)(C)C [Miltefosine, reference compound]
IC50 [4]: 0.53 µM

O=C(Cn1ccnc1[N+](=O)[O-])NCc1ccccc1 [Benznidazole, reference compound]
IC50 [3]: 2.47 µM

C=C/C=C(\C)[C@@H](O)CC[C@@H](C)/C=C/[C@@H]1CC[C@@H](C)C(=O)CC(=O)N[C@@H](C)CCC(=O)[C@@H](C)[C@H](O)[C@@H](C)/C=C(\CC)C(=O)O1 [Angiolam D, angiolam D]
P. falciparum SI (selectivity index) ([1]; listed as Angiolam D (4)): 37.1
IC50 [1, 5]: 0.8 ± 0.6 µM
T. b. rhodesiense SI (selectivity index) [2]: 6.0
IC50 [2, 6]: 4.7 ± 1.9 µM
T. cruzi SI (selectivity index) [3]: 4.3
IC50 [3]: 6.5 ± 2.2 µM
IC50 (Cytotoxicity in L6 cells; [7]): 27.8 ± 3.7 µM
L. donovani SI (selectivity index) [4]: 3.38
IC50 [4]: 8.2 ± 4.5 µM

COc1cc([C@@H]2c3cc4c(cc3[C@H](O)[C@H]3COC(=O)[C@H]23)OCO4)cc(OC)c1OC [Podophyllotoxin, reference compound]
IC50 (Cytotoxicity in L6 cells; [7]): 0.02 µM

CCN(CC)CCCC(C)Nc1ccnc2cc(Cl)ccc12 (centres unmarked) [Chloroquine, reference compound]
IC50 ([1]; NF54, read-out: P. falciparum IC50): 0.004 µM

Nc1nc(N)nc(Nc2ccc([As]3SCC(CO)S3)cc2)n1 (centres unmarked) [Melarsoprol, reference compound]
IC50 [2]: 0.02 µM

C=C/C=C(\C)[C@@H](O)CC[C@@H](C)/C=C/[C@@H]1CC[C@@H](C)C(=O)CC(=O)N[C@@H](C)CCC(=O)[C@@H](C)[C@H](O)[C@@H](CC)/C=C(\CC)C(=O)O1 [Angiolam F, angiolam F]
P. falciparum SI (selectivity index) [1]: 37
P. falciparum SI (selectivity index) ([1]; listed as Angiolam F (5)): 37.4
IC50 [1, 5]: 1.3 ± 0.6 µM
T. b. rhodesiense SI (selectivity index) [2]: 2.0
IC50 [2, 6]: 25 ± 1.4 µM
T. cruzi SI (selectivity index) [3]: ≤ 2.1
T. cruzi SI (selectivity index) ([3]; listed as Angiolam F (5)): 2.1
IC50 [3]: 24.4 ± 5 µM
IC50 (Cytotoxicity in L6 cells; rat): 49.9 ± 21.6 µM
L. donovani SI (selectivity index) [4]: 2.83
IC50 [4]: 17.6 ± 2.1 µM

C=C/C=C(\C)C(=O)CC[C@@H](C)/C=C/[C@@H]1CC[C@@H](C)C(=O)CC(=O)N[C@@H](C)CCC(=O)[C@@H](C)[C@H](O)[C@@H](C)/C=C(\C)C(=O)O1 [Angiolam B, angiolam B]
P. falciparum SI (selectivity index) [1]: ≥ 30
P. falciparum SI (selectivity index) ([1]; listed as Angiolam B (2)): 91.6
IC50 [1, 5]: 0.3 ± 0.1 µM
T. b. rhodesiense SI (selectivity index) [2]: 4.4
IC50 [2, 6]: 6.3 ± 1 µM
T. cruzi SI (selectivity index) [3]: ≤ 2.1
T. cruzi SI (selectivity index) ([3]; listed as Angiolam B (2)): 0.9
IC50 [3]: 30.4 ± 10 µM
IC50 (Cytotoxicity in L6 cells; rat): 27.8 ± 2 µM
L. donovani SI (selectivity index) [4]: 4.22
IC50 [4]: 6.6 ± 1.9 µM

C=C/C=C(\C)[C@@H](O)CC[C@@H](C)/C=C/[C@@H]1CC[C@@H](C)C(=O)CC(=O)N[C@@H](C)CCC(=O)[C@@H](C)[C@H](O)[C@@H](C)/C=C(\C)C(=O)O1 [Angiolam A, angiolam A]
P. falciparum SI (selectivity index) [1]: 34.9
IC50 [1, 5]: 2.7 ± 0.5 µM
T. b. rhodesiense SI (selectivity index) [2]: 63.2
IC50 [2, 6]: 1.5 ± 0.6 µM
T. cruzi SI (selectivity index) [3]: 7.3
IC50 [3]: 12.9 ± 5.3 µM
IC50 (Cytotoxicity in L6 cells; rat): 94 ± 23.7 µM
L. donovani SI (selectivity index) [4]: 5.62
IC50 [4]: 16.7 ± 7.3 µM
